pIC50: −log10 of the molar value. Residues, ends and D or L forms follow the SMILES beside them. *: point of attachment. X6 = CC(=O)OC[C@@H]1O[C@H](n2cc(C*)nn2)[C@@H](OC(C)=O)[C@H](OC(C)=O)[C@@H]1OC(C)=O; X3 = CC(=O)N[C@H]1[C@H](OC(C)=O)[C@H](OC(C)=O)[C@H](COC(C)=O)O[C@@H]1n1cc(C*)nn1; X1 = CC(=O)OC[C@@H]1OC(OC(C)=O)[C@@H](n2cc(C*)nn2)[C@H](OC(C)=O)[C@@H]1OC(C)=O; X9 = CC(=O)N[C@@H]1[C@H](OCCCn2cc(C*)nn2)O[C@@H](CO)[C@@H](O)[C@H]1O; X4 = CC(=O)N[C@H]1[C@H](O)[C@H](O)[C@H](CO)O[C@@H]1n1cc(C*)nn1; X5 = O=C(N[C@@H](Cn1cc(C*)nn1)C(=O)O)OCC1c2ccccc2-c2ccccc21; X2 = OC[C@@H]1O[C@H](n2cc(C*)nn2)[C@@H](O)[C@H](O)[C@@H]1O; Biotin = O=C1N[C@H]2[C@H](CS[C@H]2CCCCC(=O)*)N1; X8 = O=P(O)(O)CCn1cc(C*)nn1; X7 = O=C(O)Cn1cc(C*)nn1; Propargyl = C#CC*
Key:
Assay type in all cases: cell-based
[1] = molecular target: T1, Integrin alpha-4/beta-7 (Mus musculus) (UniProt Q00651+P26011); assay: Inhibition of integrin alpha4 beta7 receptor in mouse TK1 cells assessed as inhibition of Mn2+-activated cell adhesion to mouse MAdCAM-1-Fc at 50 uM after 1 hr by methylene blue staining analysis relative to biotin-r9YDRREY
[2] = molecular target: T1, Integrin alpha-4/beta-7 (Mus musculus); assay: Inhibition of integrin alpha4 beta7 receptor in mouse TK1 cells assessed as inhibition of Mn2+-activated cell adhesion to mouse MAdCAM-1-Fc at 100 uM after 1 hr using methylene blue staining relative to biotin-r9YDRREY
[3] = molecular target: T2, Integrin alpha-4/beta-7 (Mus musculus, UniProt P26011+Q00651); assay: Inhibition of integrin alpha4 beta7 receptor in mouse TK1 cells assessed as inhibition of Mn2+-activated cell adhesion to mouse MAdCAM-1-Fc after 1 hr using methylene blue staining
T2 sequence (Q00651 whole entry): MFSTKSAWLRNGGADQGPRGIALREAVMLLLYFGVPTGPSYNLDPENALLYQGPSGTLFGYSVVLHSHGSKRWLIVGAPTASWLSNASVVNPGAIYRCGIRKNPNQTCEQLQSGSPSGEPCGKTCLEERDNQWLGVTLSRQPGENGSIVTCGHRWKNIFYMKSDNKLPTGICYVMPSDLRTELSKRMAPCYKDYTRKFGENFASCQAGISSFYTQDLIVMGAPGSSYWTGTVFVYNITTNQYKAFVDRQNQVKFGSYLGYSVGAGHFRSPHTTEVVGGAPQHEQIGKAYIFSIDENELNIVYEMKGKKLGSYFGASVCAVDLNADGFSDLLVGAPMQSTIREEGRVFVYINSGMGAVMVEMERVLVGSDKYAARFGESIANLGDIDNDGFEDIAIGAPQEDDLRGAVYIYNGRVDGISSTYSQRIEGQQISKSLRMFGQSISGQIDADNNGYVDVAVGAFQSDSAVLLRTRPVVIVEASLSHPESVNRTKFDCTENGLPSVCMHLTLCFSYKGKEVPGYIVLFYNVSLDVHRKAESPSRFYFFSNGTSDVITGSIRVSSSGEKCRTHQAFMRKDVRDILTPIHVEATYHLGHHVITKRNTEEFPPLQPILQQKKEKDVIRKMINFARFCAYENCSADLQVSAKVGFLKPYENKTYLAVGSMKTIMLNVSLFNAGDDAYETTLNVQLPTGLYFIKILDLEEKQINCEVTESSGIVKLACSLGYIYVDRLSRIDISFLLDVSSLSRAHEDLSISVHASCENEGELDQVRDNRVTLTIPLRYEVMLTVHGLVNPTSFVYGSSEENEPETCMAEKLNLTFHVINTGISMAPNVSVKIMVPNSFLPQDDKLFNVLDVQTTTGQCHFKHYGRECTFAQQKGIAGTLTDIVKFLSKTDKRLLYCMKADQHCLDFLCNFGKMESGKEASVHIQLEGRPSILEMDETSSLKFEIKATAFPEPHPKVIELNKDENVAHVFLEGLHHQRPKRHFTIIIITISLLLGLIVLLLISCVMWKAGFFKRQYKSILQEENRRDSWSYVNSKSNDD
T2 sequence (P26011 whole entry): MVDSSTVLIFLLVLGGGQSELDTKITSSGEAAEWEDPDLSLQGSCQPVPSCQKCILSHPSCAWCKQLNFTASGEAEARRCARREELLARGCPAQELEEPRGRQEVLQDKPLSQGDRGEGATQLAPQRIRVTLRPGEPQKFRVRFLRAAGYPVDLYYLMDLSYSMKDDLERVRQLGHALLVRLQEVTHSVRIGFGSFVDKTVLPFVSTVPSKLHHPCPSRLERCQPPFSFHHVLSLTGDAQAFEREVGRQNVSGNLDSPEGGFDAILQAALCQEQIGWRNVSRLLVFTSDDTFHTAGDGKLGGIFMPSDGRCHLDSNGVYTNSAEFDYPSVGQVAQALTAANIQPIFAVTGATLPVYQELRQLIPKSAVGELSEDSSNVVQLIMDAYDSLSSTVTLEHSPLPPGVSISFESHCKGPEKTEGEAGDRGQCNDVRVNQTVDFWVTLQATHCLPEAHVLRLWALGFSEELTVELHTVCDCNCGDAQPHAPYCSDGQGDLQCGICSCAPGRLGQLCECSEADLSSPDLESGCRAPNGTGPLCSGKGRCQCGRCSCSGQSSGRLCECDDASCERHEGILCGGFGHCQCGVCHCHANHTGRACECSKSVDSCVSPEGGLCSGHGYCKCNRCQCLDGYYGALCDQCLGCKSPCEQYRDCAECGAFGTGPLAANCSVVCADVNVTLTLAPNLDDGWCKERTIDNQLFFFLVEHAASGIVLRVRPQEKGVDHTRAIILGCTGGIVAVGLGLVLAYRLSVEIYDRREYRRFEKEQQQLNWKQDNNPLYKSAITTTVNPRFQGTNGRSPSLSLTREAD

Compound	inhibition [1] [%]	inhibition [2] [%]	pIC50 [3]
CC(=O)OC[C@@H]1OC(OC(C)=O)[C@@H](n2cc(COc3ccc(C[C@H](NC(=O)[C@H](CCCNC(=N)N)NC(=O)[C@H](CCC(=O)O)NC(=O)[C@H](CCCNC(=N)N)NC(=O)[C@H](CCCNC(=N)N)NC(=O)[C@H](CCCNC(=N)N)NC(=O)[C@H](CCCNC(=N)N)NC(=O)[C@H](CCCNC(=N)N)NC(=O)[C@H](CCCNC(=N)N)NC(=O)[C@H](CCCNC(=N)N)NC(=O)[C@H](CCCNC(=N)N)NC(=O)CCCC[C@@H]4SC[C@@H]5NC(=O)N[C@@H]54)C(=O)O)cc3)nn2)[C@H](OC(C)=O)[C@@H]1OC(C)=O (some centres not stated) (Biotin-RRRRRRRRERY(X1)-OH)	104	105	4.30
CC(=O)N[C@H]1[C@H](OC(C)=O)[C@H](OC(C)=O)[C@H](COC(C)=O)O[C@@H]1n1cc(COc2ccc(C[C@H](NC(=O)[C@H](CCCNC(=N)N)NC(=O)[C@H](CCC(=O)O)NC(=O)[C@H](CCCNC(=N)N)NC(=O)[C@H](CCCNC(=N)N)NC(=O)[C@H](CCCNC(=N)N)NC(=O)[C@H](CCCNC(=N)N)NC(=O)[C@H](CCCNC(=N)N)NC(=O)[C@H](CCCNC(=N)N)NC(=O)[C@H](CCCNC(=N)N)NC(=O)[C@H](CCCNC(=N)N)NC(=O)CCCC[C@@H]3SC[C@@H]4NC(=O)N[C@@H]43)C(=O)O)cc2)nn1 (Biotin-RRRRRRRRERY(X3)-OH)	40	46.5	–
N=C(N)NCCC[C@H](NC(=O)CCCC[C@@H]1SC[C@@H]2NC(=O)N[C@@H]21)C(=O)N[C@@H](CCCNC(=N)N)C(=O)N[C@@H](CCCNC(=N)N)C(=O)N[C@@H](CCCNC(=N)N)C(=O)N[C@@H](CCCNC(=N)N)C(=O)N[C@@H](CCCNC(=N)N)C(=O)N[C@@H](CCCNC(=N)N)C(=O)N[C@@H](CCCNC(=N)N)C(=O)N[C@@H](CCC(=O)O)C(=O)N[C@@H](CCCNC(=N)N)C(=O)N[C@@H](Cc1ccc(OCc2cn(C[C@H](NC(=O)OCC3c4ccccc4-c4ccccc43)C(=O)O)nn2)cc1)C(=O)O (Biotin-RRRRRRRRERY(X5)-OH)	114	111	> 5.00
CC(=O)OC[C@@H]1O[C@H](n2cc(COc3ccc(C[C@H](NC(=O)[C@H](CCCNC(=N)N)NC(=O)[C@H](CCC(=O)O)NC(=O)[C@H](CCCNC(=N)N)NC(=O)[C@H](CCCNC(=N)N)NC(=O)[C@H](CCCNC(=N)N)NC(=O)[C@H](CCCNC(=N)N)NC(=O)[C@H](CCCNC(=N)N)NC(=O)[C@H](CCCNC(=N)N)NC(=O)[C@H](CCCNC(=N)N)NC(=O)[C@H](CCCNC(=N)N)NC(=O)CCCC[C@@H]4SC[C@@H]5NC(=O)N[C@@H]54)C(=O)O)cc3)nn2)[C@@H](OC(C)=O)[C@H](OC(C)=O)[C@@H]1OC(C)=O (Biotin-RRRRRRRRERY(X6)-OH)	47.4	52.5	–

Continued, values first:

inhibition [1] [%]	inhibition [2] [%]	pIC50 [3]	Compound
39.8	39.8	–	C#CCOc1ccc(C[C@H](NC(=O)[C@H](CCCNC(=N)N)NC(=O)[C@H](CCC(=O)O)NC(=O)[C@H](CCCNC(=N)N)NC(=O)[C@H](CCCNC(=N)N)NC(=O)[C@H](CCCNC(=N)N)NC(=O)[C@H](CCCNC(=N)N)NC(=O)[C@H](CCCNC(=N)N)NC(=O)[C@H](CCCNC(=N)N)NC(=O)[C@H](CCCNC(=N)N)NC(=O)[C@H](CCCNC(=N)N)NC(=O)CCCC[C@@H]2SC[C@@H]3NC(=O)N[C@@H]32)C(=O)O)cc1 (Biotin-RRRRRRRRERY(Propargyl)-OH)
60.2	62.7	–	N=C(N)NCCC[C@H](NC(=O)CCCC[C@@H]1SC[C@@H]2NC(=O)N[C@@H]21)C(=O)N[C@@H](CCCNC(=N)N)C(=O)N[C@@H](CCCNC(=N)N)C(=O)N[C@@H](CCCNC(=N)N)C(=O)N[C@@H](CCCNC(=N)N)C(=O)N[C@@H](CCCNC(=N)N)C(=O)N[C@@H](CCCNC(=N)N)C(=O)N[C@@H](CCCNC(=N)N)C(=O)N[C@@H](CCC(=O)O)C(=O)N[C@@H](CCCNC(=N)N)C(=O)N[C@@H](Cc1ccc(OCc2cn([C@H]3O[C@@H](CO)[C@@H](O)[C@@H](O)[C@@H]3O)nn2)cc1)C(=O)O (Biotin-RRRRRRRRERY(X2)-OH)
28	39.6	–	CC(=O)N[C@H]1[C@H](O)[C@H](O)[C@H](CO)O[C@@H]1n1cc(COc2ccc(C[C@H](NC(=O)[C@H](CCCNC(=N)N)NC(=O)[C@H](CCC(=O)O)NC(=O)[C@H](CCCNC(=N)N)NC(=O)[C@H](CCCNC(=N)N)NC(=O)[C@H](CCCNC(=N)N)NC(=O)[C@H](CCCNC(=N)N)NC(=O)[C@H](CCCNC(=N)N)NC(=O)[C@H](CCCNC(=N)N)NC(=O)[C@H](CCCNC(=N)N)NC(=O)[C@H](CCCNC(=N)N)NC(=O)CCCC[C@@H]3SC[C@@H]4NC(=O)N[C@@H]43)C(=O)O)cc2)nn1 (Biotin-RRRRRRRRERY(X4)-OH)
56.1	34.9	–	N=C(N)NCCC[C@H](NC(=O)CCCC[C@@H]1SC[C@@H]2NC(=O)N[C@@H]21)C(=O)N[C@@H](CCCNC(=N)N)C(=O)N[C@@H](CCCNC(=N)N)C(=O)N[C@@H](CCCNC(=N)N)C(=O)N[C@@H](CCCNC(=N)N)C(=O)N[C@@H](CCCNC(=N)N)C(=O)N[C@@H](CCCNC(=N)N)C(=O)N[C@@H](CCCNC(=N)N)C(=O)N[C@@H](CCC(=O)O)C(=O)N[C@@H](CCCNC(=N)N)C(=O)N[C@@H](Cc1ccc(OCc2cn(CC(=O)O)nn2)cc1)C(=O)O (Biotin-RRRRRRRRERY(X7)-OH)
60.3	65.4	–	N=C(N)NCCC[C@H](NC(=O)CCCC[C@@H]1SC[C@@H]2NC(=O)N[C@@H]21)C(=O)N[C@@H](CCCNC(=N)N)C(=O)N[C@@H](CCCNC(=N)N)C(=O)N[C@@H](CCCNC(=N)N)C(=O)N[C@@H](CCCNC(=N)N)C(=O)N[C@@H](CCCNC(=N)N)C(=O)N[C@@H](CCCNC(=N)N)C(=O)N[C@@H](CCCNC(=N)N)C(=O)N[C@@H](CCC(=O)O)C(=O)N[C@@H](CCCNC(=N)N)C(=O)N[C@@H](Cc1ccc(OCc2cn(CCP(=O)(O)O)nn2)cc1)C(=O)O (Biotin-RRRRRRRRERY(X8)-OH)
41.5	42.4	–	CC(=O)N[C@@H]1[C@H](OCCCn2cc(COc3ccc(C[C@H](NC(=O)[C@H](CCCNC(=N)N)NC(=O)[C@H](CCC(=O)O)NC(=O)[C@H](CCCNC(=N)N)NC(=O)[C@H](CCCNC(=N)N)NC(=O)[C@H](CCCNC(=N)N)NC(=O)[C@H](CCCNC(=N)N)NC(=O)[C@H](CCCNC(=N)N)NC(=O)[C@H](CCCNC(=N)N)NC(=O)[C@H](CCCNC(=N)N)NC(=O)[C@H](CCCNC(=N)N)NC(=O)CCCC[C@@H]4SC[C@@H]5NC(=O)N[C@@H]54)C(=O)O)cc3)nn2)O[C@@H](CO)[C@@H](O)[C@H]1O (Biotin-RRRRRRRRERY(X9)-OH)

Source: ChEMBL document CHEMBL2010719, “Tyrosine modified analogues of the α4β7 integrin inhibitor biotin-R₈ERY prepared via Click Chemistry: synthesis and biological evaluation” (Bioorg Med Chem, 2012)
